The subject of one data set is CNE-1 and HONE-1 cells. In words: Migration and invasiveness of nasopharyngeal carcinoma cells. The format is cell-based, human. The protocol:
Although CQ has already been applied to treat a wide spectrum of human cancers, CQ induces ocular or renal toxicity and easily triggers drug resistance (Kimura et al., 2013). […] We first investigated the anti-tumor effects of vacuolin-1 in two nasopharyngeal carcinoma cell lines, CNE-1 and HONE-1. […] Alternatively, colony formation assay was performed to assess whether vacuolin-1 affects the ability of a single tumor cell to grow into a colony. […] We subsequently performed wound healing assay to assess whether vacuolin-1 affects the migration of tumor cells. […] Obviously, vacuolin-1 is an efficient anti-tumor agent in vitro.

Data set [1] concerns the target T1, V-ATPase (purified V1V0 holoenzyme) (Manduca sexta, UniProt P31400).
T1 construct: Assays contained 3 μg of purified V1V0 holoenzyme; from tissue; host or cells: Fifth instar larvae of M. sexta; The midgut goblet cell apical membrane is named only in the title of the cited Wieczorek et al. 1990, not in the method text
In words: In vitro V-ATPase assay. The format is biochemical, M. sexta. The protocol: V-ATPase assay—Fifth instar larvae of M. sexta (Lepidoptera, Sphingidae), weighing 6-8 g, were reared under long day conditions (16 h of light) at 27° C. using the gypsy moth diet (MP Biomedicals, Germany). The purification of the V1VO holoenzyme was performed as previously described (Huss et al., 2002). Activity assays were performed in triplicate in a final volume of 160 μL and at a pH of 8.1. Assays contained 3 μg of purified V1V0 holoenzyme, 50 mM Tris-Mops, 3 mM 2-mercaptoethanol, 1 mM MgCl2, 20 mM KCl, 0.003% C12E10, 20 mM NaCl, and 3 mM Tris-HCl. After 10 min of preincubation at 30° C., with or without inhibitors, 1 mM Tris-ATP was added and after an incubation for 2 min at 30° C. the reaction was stopped by freezing the samples in liquid nitrogen. Inorganic phosphate was determined as previously described (Wieczorek et al., 1990).

The test system of data set [2] is human lung cancer stem cells (hLCSCs). In words: Autophagy inhibition in lung cancer stem cells. The format is cell-based. The source says:
(§1) Cancer stem cells (CSCs), a subpopulation of cells within tumors, actually drive tumor growth and recurrence. CSCs are resistant to many current cancer treatments, including chemo- and radiation therapy, thus they can survive these therapy to regenerate new tumors. […] Therefore, it is of great interest to assess the anti-tumor effects of vacuolin-1 on CSCs.

The test system is the same in data set [3]. In words: Migration of hLCSCs. It is filed as cell-based. Particulars: >10 μM.
Text: as §1

The target in a further data set is T2, Rab5 (Homo sapiens, UniProt P20339).
T2 construct: results of a GST-tagged Rabaptin5 pull-down assay in HeLa cells showing active Rab5 in cells treated with vacuolin-1 (1 μM); endogenous in cells; host or cells: HeLa cells
T2 sequence (P20339 1-215): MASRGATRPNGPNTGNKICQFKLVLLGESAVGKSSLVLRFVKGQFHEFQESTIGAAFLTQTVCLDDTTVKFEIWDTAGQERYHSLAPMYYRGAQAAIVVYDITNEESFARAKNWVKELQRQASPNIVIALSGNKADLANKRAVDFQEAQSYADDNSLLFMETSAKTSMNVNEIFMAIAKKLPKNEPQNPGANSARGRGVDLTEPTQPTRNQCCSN
Description: GST-tagged Rabaptin5 pull-down assay for active Rab5. The format is cell-based. Particulars: HeLa cells, 1 μM. The method, then:
Glutathione S-Transferase (GST) Pull-Down Assay—Cells were collected and lysed in an ice-cold EBC lysis buffer described previously. Lysates were clarified by centrifugation at 13,000 g for 10 min at 4° C., and equal amount of protein (500 μg) from each supernatant was incubated with 30 μl of GST-RSBD bound to the 30 μl glutathione—Sepharose beads for 1 h at 4° C. on a rotating mixer. The beads was subsequently washed and resuspended in the standard SDS-sample buffer, boiled and subjected to SDS-PAGE (15% gel), followed by immunoblot analysis with the anti-Rab5 mAb.

A further data set relates to LCSC tumor xenograft. Description: LCSC tumor xenograft in BALB/c nude mice. It is filed as in vivo. The protocol: We first assessed the ability of vacuolin-1 to suppress LCSC tumor xenograft in BALB/c nude mice. Briefly, 1×10^4 lung cancer stem cells (LCSCs, 3rd generation) were suspended in Matrigel (BD Biosciences) at a ratio of 1:1, and 200 iL of cells was subcutaneously injected into the back of nude mice. The tumor volume was measured every five days after injection and calculated from the formula: length×width×depth×π/6. Mice were removed from the study when their tumor volumes exceed 2000 mm^3 (FIG. 18A). […] Also, we tested the acute toxicity of vacuolin-1 in mice.

In data set [4] the test system is HeLa cells. Description: Cathepsin L processing (western blot). The format is cell-based. Particulars: 1 μM. On the technique in general: In western blotting, separated proteins are transferred to a membrane and probed.
Data set [5] relates to HeLa cells. Description: GPN induced lysosomal Ca2+ release in Fura-2 loaded cells. To be noted: 1 μM pretreatment 5 hours, GPN 200 μM. It is filed as cell-based. The protocol: Intracellular Ca^2+ measurement—Cells were cultured in 24-well plates at the density of 7×10^4 cells/well in regular medium overnight and were labeled with 4 μM Fura-2 AM (Invitrogen) in regular HMSS at room temperature for 30 min. The cells were then washed with calcium-free HMSS containing 2 mM EGTA three times and incubated in the presence or absence of vacuolin-1 at room temperature for another 10 min. Cells were put on the stage of an Olympus inverted epifluorescence microscope and visualized using a 20× objective. Fluorescence images were obtained by alternate excitation at 340 nm and 380 nm with emission set at 510 nm. Images were collected by a CCD camera every 3 or 6 seconds and analyzed by Cell R imaging software.
Since lysosome is also a major intracellular Ca^2+ pool, and Ca^2+ and protons are tightly coupled in lysosomes (Morgan et al., 2011), it was also assessed whether vacuolin-1 treatment affects the lysosomal Ca^2+ content. Treatment of cells with glycyl-1-phenylalanine 2-naphthylamide (GPN) selectively disrupts the lysosomal membrane (Jadot et al., 2001), thereby releasing the lysosomal Ca^2+ (Srinivas et al., 2002).

The subject of data set [6] is RFP-GFP-LC3 expressing HeLa cells. In words: RFP-GFP-LC3 (tfLC3) fluorescence image-based autophagy assay. The format is cell-based. The source says: Prompted by the fact that many available autophagy chemical modulators lack either potency or specificity (Kimura et al., 2013), a fluorescence image-based assay was set up to screen small molecules affecting autophagy. HeLa cells, an autophagy competent cell line, were infected with lentiviruses carrying expression cassettes that encode RFP-GFP-LC3 (tfLC3) (Kimura et al., 2007). Thus, the LC3-II positive autophagosomes are labeled with both GFP and RFP signals shown as yellow puncta, and after fusion with lysosomes, autolysosomes are shown as red only puncta because GFP loses its fluorescence in acidic pH.
Next, a panel of small chemicals that are commercially available and have been previously shown to affect vesicle trafficking or organelle morphology were selected and screened for their effects on autophagy regulation in tfLC3 expressing HeLa cells (data not shown).

The mark [7] stands for this setting: nude mice, intratumoral injection 5 mg/kg twice a week.

Results on one molecule are retold here after patent US9717737B2, “Vacuolin-1 as an inhibitor of autophagy and endosomal trafficking and the use thereof for inhibiting tumor progression” (The University of Hong Kong, priority 2014, dated 2017).

T1 sequence (P31400 whole entry): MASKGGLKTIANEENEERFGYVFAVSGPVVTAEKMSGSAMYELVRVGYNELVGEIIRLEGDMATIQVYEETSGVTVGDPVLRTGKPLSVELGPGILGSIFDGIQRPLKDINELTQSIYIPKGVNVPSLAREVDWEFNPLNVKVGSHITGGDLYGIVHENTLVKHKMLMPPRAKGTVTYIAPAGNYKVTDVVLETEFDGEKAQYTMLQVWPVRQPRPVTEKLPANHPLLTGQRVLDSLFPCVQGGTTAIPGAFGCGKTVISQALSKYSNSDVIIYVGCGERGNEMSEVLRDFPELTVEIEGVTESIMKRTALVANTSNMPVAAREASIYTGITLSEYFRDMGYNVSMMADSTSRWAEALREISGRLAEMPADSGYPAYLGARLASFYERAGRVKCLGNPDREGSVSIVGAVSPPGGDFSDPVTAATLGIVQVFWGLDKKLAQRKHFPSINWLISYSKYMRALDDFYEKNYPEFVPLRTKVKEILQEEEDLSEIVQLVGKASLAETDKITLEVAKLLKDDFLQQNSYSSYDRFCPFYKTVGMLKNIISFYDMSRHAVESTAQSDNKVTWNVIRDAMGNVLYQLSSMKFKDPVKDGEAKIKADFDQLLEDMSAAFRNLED

Regarding `Ic1cccc(/C=N/Nc2nc(N3CCOCC3)nc(N(c3ccccc3)c3ccccc3)n2)c1` [vacuolin-1], in the data set on CNE-1 and HONE-1 cells (FIG. 16D), the migration entry is given as “markedly inhibited”. For the same molecule, the invasiveness result in the data set with CNE-1 and HONE-1 cells (FIG. 16E) was “markedly inhibited”. In addition, the “V-ATPase activity in vitro” value in data set [1] is listed as “little effects”. Also, the “autophagy inhibition potency in hLCSCs relative to other tumor cell lines (times less potent)” value in data set [2] was 10 times. In [3], the “migration of hLCSCs” value was “almost completely inhibited”. Further, the “Rab5 activation (Rab5-GTP pull-down)” value on Rab5 is listed as “markedly activated Rab5”. In the data set with LCSC tumor xenograft (LCSC xenograft, vacuolin-1 treatment), the autophagy in tumors result is on record as “markedly inhibited autophagy”. For the same molecule, in the data set with LCSC tumor xenograft (setting [7]), the “tumor growth of LCSC xenograft” value is on record as “markedly inhibited tumor growth” and the “weight gain of xenograft mice” value is “little effects”. In the data set with HeLa cells [4], the “levels of immature form of cathepsin L” value is recorded as “markedly increase” and the “processing of cathepsin L into its mature form” value was “not affected”. For the same molecule, the “GPN induced lysosomal Ca2+ release” value with HeLa cells [5] is “significantly lowered”. In addition, in [6], the “LC3 puncta (yellow = autophagosomes, red only = autolysosomes)” value was “potently induced LC3 yellow puncta, not red puncta”.
